The results in this text go back to ChEMBL document CHEMBL3217540, “New 3-amidinophenylalanine-derived inhibitors of matriptase” (Medchemcomm, 2012).

pKi: −log10 of the molar value.

For experiment [1], the target named is Coagulation factor X (Homo sapiens, UniProt P00742). Briefly: Inhibition of human factor 10a using CH3OCO-D-Cha-Gly-Arg-pNA as substrate.
In experiment [2] the target is Urokinase-type plasminogen activator (Homo sapiens, UniProt P00749). Briefly: Inhibition of human uPA using Bzbeta-Ala-Gly-Arg-pNA as substrate.
The target of experiment [3] is Prothrombin (Bos taurus, UniProt P00735). Briefly: Inhibition of bovine thrombin using MeSO2-D-Cha-Gly-Arg-pNA as substrate.
The target in experiment [4] is T1, Suppressor of tumorigenicity 14 protein (Homo sapiens, UniProt Q9Y5Y6).
T1 sequence (Q9Y5Y6 whole entry): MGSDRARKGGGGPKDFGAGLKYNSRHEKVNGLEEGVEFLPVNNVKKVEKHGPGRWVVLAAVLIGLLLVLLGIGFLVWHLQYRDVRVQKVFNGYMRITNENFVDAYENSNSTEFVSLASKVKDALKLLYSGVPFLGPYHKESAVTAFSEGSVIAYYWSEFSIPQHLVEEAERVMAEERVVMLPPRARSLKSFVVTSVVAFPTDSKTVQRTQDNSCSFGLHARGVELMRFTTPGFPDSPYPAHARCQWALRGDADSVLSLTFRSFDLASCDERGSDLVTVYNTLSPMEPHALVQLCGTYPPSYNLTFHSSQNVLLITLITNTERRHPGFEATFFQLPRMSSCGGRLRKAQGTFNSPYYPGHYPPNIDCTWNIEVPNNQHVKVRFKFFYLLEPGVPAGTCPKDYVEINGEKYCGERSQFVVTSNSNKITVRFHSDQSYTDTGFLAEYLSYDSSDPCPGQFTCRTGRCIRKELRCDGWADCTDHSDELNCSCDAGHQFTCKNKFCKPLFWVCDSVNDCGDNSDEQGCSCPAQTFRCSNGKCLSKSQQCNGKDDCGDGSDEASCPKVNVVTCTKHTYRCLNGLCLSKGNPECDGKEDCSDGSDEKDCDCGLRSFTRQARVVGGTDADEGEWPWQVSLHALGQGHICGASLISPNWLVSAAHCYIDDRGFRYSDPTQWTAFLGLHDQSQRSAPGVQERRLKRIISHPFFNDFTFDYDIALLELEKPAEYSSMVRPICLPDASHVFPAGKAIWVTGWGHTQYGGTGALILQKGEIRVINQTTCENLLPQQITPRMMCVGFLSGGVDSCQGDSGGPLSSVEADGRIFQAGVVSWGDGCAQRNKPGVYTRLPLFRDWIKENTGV
Briefly: Inhibition of matriptase (unknown origin) using MeSO2-D-Cha-Gly-Arg-pNA as substrate.

In experiment [5] the target is T2, Transmembrane protease serine 6 (Homo sapiens, UniProt Q8IU80).
T2 sequence (Q8IU80 whole entry): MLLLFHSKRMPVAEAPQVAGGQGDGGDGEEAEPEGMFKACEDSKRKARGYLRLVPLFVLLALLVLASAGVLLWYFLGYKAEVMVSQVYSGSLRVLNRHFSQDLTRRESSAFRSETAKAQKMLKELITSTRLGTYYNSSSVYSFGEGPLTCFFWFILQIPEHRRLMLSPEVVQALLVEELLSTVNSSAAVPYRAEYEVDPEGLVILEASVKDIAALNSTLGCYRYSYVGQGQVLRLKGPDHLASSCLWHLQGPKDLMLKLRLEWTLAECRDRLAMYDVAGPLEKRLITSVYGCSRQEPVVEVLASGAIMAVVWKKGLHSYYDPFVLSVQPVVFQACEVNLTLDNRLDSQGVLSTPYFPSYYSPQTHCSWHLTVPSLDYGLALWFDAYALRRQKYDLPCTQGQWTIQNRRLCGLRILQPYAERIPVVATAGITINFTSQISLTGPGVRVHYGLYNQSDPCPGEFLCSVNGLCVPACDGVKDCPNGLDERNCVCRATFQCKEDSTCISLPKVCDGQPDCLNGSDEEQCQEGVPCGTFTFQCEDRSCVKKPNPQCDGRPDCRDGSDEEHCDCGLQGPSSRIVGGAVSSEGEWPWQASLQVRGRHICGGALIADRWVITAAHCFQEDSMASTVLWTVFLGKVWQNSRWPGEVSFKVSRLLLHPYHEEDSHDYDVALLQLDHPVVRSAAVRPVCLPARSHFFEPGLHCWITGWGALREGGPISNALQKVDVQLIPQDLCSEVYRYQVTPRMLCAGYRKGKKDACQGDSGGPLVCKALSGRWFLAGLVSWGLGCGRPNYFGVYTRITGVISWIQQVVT
The experiment in a line: Inhibition of matriptase-2 (unknown origin) expressed in HEK293 cells using ln-Ala-Arg-a-Arg-para-nitroanilide as substrate by UV-vis spectrophotometry. The class given is cell-based.

A short description of experiment [6]: Inhibition of recombinant human airway trypsin-like protease by fluorescence assay.
Experiment [7] can be described thus: Selectivity ratio of Ki for bovine thrombin to Ki for matriptase (unknown origin).
The subject of experiment [8] is HEK293. The experiment in a line: Selectivity ratio of Ki for matriptase-2 (unknown origin) expressed in HEK293 cells to Ki for matriptase (unknown origin). The experiment is classed as cell-based. Conditions: Homo sapiens.
Experiment [9] is filed under the species Homo sapiens. The experiment in a line: Selectivity ratio of Ki for human uPA to Ki for matriptase (unknown origin).
For experiment [10], the species on record is Homo sapiens. The experiment in a line: Selectivity ratio of Ki for recombinant human airway trypsin-like protease to Ki for matriptase (unknown origin).

A word on the pKi: it is −log10 of the Ki, conventionally taken in molar units.

Sequence of Coagulation factor X (P00742 41-179 limits assumed): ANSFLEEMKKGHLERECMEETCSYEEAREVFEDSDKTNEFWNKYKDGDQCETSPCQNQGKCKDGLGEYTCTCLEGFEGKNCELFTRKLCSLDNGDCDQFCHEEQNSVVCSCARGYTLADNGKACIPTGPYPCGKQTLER
Sequence of Coagulation factor X (P00742 235-488 limits assumed): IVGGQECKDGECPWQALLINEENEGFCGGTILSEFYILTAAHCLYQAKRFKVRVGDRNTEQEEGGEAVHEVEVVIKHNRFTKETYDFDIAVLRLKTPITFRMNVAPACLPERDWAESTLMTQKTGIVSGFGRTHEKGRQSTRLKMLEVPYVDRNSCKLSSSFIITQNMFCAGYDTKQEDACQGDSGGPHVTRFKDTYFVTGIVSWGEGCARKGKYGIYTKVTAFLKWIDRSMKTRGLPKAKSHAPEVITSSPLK

`CNC(=O)NCCC1CCN(C(=O)[C@H](Cc2cccc(C(=N)N)c2)NS(=O)(=O)c2cccc(-c3ccc(Cl)cc3Cl)c2)CC1`: the pKi in experiment [1] is 7.54; in experiment [2] it was 5.47; in experiment [3], 9.70; in experiment [4], 9.05; in [5], 7.14; in [6], 6.77.

Turning to `CNC(=O)NCCC1CCN(C(=O)[C@H](Cc2cccc(C(=N)N)c2)NS(=O)(=O)c2cccc(-c3ccc(OC)cc3OC)c2)CC1`, the pKi was 7.29 in experiment [1]; 5.36 in experiment [2]; 9.10 in experiment [3]; 8.74 in experiment [4]; 6.74 in [5]; 6.96 in experiment [6].

Turning to `COc1ccc(-c2cccc(S(=O)(=O)N[C@@H](Cc3cccc(C(=N)N)c3)C(=O)N3CCC(NC(=O)NC4CCCCC4)CC3)c2)c(OC)c1`, the pKi was 7.96 in [1]; 4.73 in experiment [2]; 5.91 in [3]; 8.57 in experiment [4]; 5.85 in experiment [5]; 6.08 in experiment [6]. Further, in experiment [7], the Ratio Ki is greater than 500.

Regarding `N=C(N)c1cccc(C[C@H](NS(=O)(=O)c2cccc(-c3ccc(Cl)cc3Cl)c2)C(=O)N2CCC(NC(=O)NC3CCCCC3)CC2)c1`, the pKi in experiment [1] was 7.70; in experiment [2] it was 4.74; in experiment [3] it was 6.20; in experiment [4], 8.29; in experiment [5], 6.03; in experiment [6], 5.57. For the same molecule, the Ratio Ki in [7] is greater than 500.

Consider `COc1ccc(-c2cccc(S(=O)(=O)N[C@@H](Cc3cccc(C(=N)N)c3)C(=O)N3CCC(CCN)CC3)c2)c(OC)c1`, for which the pKi was 6.96 in experiment [1], 7.52 in experiment [3], 9.00 in experiment [4] and 6.51 in [5]. Further, the Ratio Ki in [8], in experiment [9] and in [10] was 20 each time.
